# Experimental data as given in patent US11559585B2, “Conjugates of active pharmaceutical ingredients” (priority 2017, dated 2023).
# How the values were obtained:
# OSC-3 cells = assay: Cell viability with or without laser
# Description: The synergistic effect of the chemotherapy and phototherapy of pPhD NPs was evaluated. OSC-3 cells were incubated with different concentrations of free photosensitizer (Phy), free chemotherapeutic drug (DOX) and pPhD NPs, respectively, then treated with or without laser (FIG. 11i).
# [1] = Systemic toxicity of pPhD NPs (body weight, H&E); format: in vivo
# Description: Tumor volume and body weight measurements. The body weights and tumor sizes were monitored three times a week, and the tumor volume was calculated by the following formula: Tumor volume=Length×(Width/2)^2.
# H&E evaluation. All laser-treated tumors were collected and stained with hematoxylin and eosin (H&E) to evaluate the effect of phototherapy. The main organs of each group, including heart, liver, spleen, lung, kidney, small intestine, were collected for H&E assay to evaluate the toxicity of the materials.
# [2] = system: A549 human lung cancer cells; assay: Cell uptake and intracellular ROS production; format: cell-based; conditions: upon laser/light illumination
# Description: Cell uptake and intracellular ROS production. […] After three times of washes with PBS, cells were incubated with 50 μM DCF-DA for 30 minutes. Samples were treated with or without light (630 nm, Omnilux New-U LED panel) for 1 minute, and intracellular […] (based on Pa fluorescence) and ROS production were analyzed by flow cytometry ([…], BD Bioscience, SD, CA).
# U87-MG tumour cells = assay: Cell viability (MTS) with or without laser; format: cell-based
# Description: Cell viabilities evaluation. U87-MG cells were purchased from the American Type Culture Collection (ATCC, Manassas, Va., USA). Cells were cultured in RPMI 1640 Medium supplemented with 10% fetal bovine serum, 100 U/mL penicillin G, and […] streptomycin in a humidified 37° C. with 5% CO2. Cell viabilities were determined by MTS method. U87-MG cells were seeded in 96-well plates with a density of 5000 cells per well. The cells were incubated overnight until fully attached. The cells were treated with different concentrations of Pa, Ir, Pa and Ir mixture and PIN. 12 h later, the extracellular materials were washed off with PBS and replaced with fresh culture media. Laser treated group were exposed under a laser source of Omnilux New-U device (630 nm) for 3 min, and further incubated with non-laser treated cells for another 24 h. MTS was added to each well and further incubated for 2 h. The UV-vis absorbance at 495 nm with a reference wavelength of 630 nm was detected using a micro-plate reader using an SpectraMax M3 Multi-Mode Microplate Readers (Molecular Devices, LLC., CA, USA). Untreated cells in medium were used as controls. […]. Results were shown as the average cell viability [(ODtreat−ODblank)/(ODcontrol−ODblank)*100%] of triplicate wells.
# A549 cells = assay: Cytotoxicity assay (MTS) with or without light; format: cell-based, human; conditions: upon light treatment (630 nm, 3 min)
# Description: Cytotoxicity assay. Cell viabilities were determined by MTS method according to manufactory manual (Promega, Madison, Wis.). A549 cells were seeded in 96-wells plates with a density of 5000 cells per well. […] Six hours later, medium was replaced with fresh complete media followed by illumination with 630 nm light for 3 minutes. After additional 24 hours incubation, MTS working solution was added and the absorbance at 490 nm was evaluated by SpectraMax M3 microplate reader. Experiments were performed in triplicate, and 3 independent experiments were conducted.
molecule,measurement,setting,value
"COc1cccc2c1C(=O)c1c(O)c3c(c(O)c1C2=O)C[C@@](O)(C(=O)CO)C[C@@H]3O[C@H]1C[C@H](N)[C@H](O)[C@H](C)O1 [DOX, doxorubicin]",cytotoxicity,OSC-3 cells,notable anti-tumor efficacy
same,body weight changes / systemic toxicity,[1]; during treatment,obvious body weights loss
same,lesion of major organs (H&E),"[1]; mouse, in vivo",obvious liver and heart toxicity
"CCc1c2c(nc3ccc(OC(=O)N4CCC(N5CCCCC5)CC4)cc13)-c1cc3c(c(=O)n1C2)COC(=O)[C@]3(O)CC [Ir, irinotecan]",intracellular ROS production,[2],did not produce intracellular ROS
pheophorbide A [Pa],IC50,"U87-MG tumour cells; with laser treatment (630 nm, 3 min)",~50 µM
same,cytotoxicity,U87-MG tumour cells; without laser,no obvious cytotoxicity
same,IC50,A549 cells,7 µM
pheophorbide a-hydrazide [Phy],cytotoxicity,OSC-3 cells,no obvious cytotoxicity
